Measurements reported in patent US20080227134A9, “Glyoxylate assays and their use of inden tifying natural amidated compounds” (priority 2005, published 2008).

Columns and labels:
PAM = target: T1, PAM (Rattus norvegicus, UniProt P14925); assay: PAM dependent conversion of N-dansyl-Tyr-Val-Gly verified by RP-HPLC; type: biochemical; conditions: 20 μM substrate, PAM 15 U/L, 1.0 mM catechol, one hour at 37° C.
T1 construct: Unigene Labs, Inc. (Fairfield, N.J.), gift
T1 sequence (P14925 36-715 isoform P14925-2 limits assumed): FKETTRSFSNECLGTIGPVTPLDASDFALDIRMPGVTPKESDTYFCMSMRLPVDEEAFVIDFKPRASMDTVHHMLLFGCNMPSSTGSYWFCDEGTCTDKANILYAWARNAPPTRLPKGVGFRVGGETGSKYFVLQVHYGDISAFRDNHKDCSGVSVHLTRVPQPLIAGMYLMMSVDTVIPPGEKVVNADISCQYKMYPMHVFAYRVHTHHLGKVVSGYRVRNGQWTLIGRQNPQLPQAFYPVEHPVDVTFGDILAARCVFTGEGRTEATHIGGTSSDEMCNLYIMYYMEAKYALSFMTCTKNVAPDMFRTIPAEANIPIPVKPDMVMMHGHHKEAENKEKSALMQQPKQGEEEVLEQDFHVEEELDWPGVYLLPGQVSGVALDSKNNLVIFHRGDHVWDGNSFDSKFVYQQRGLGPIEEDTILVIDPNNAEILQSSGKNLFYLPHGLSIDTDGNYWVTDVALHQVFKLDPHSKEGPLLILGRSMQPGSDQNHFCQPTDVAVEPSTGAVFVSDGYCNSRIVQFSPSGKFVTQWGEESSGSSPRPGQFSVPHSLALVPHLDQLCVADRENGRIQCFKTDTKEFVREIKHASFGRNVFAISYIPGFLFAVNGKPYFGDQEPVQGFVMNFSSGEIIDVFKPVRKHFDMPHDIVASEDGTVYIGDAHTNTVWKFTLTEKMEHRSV
Protocol: Glyoxylate production was initiated by the addition of PAM (15 U/L) to a solution containing 40 mM MES/NaOH pH 6.0, 10 U/ml HRP, 1.0 mM catechol, 0.5 μM CU(SO4), 20 μM dansyl-Tyr-Val-Gly, the reaction proceeded for one hour at 37° C. […] The complete PAM dependent conversion of 20 μM N-dansyl-Tyr-Val-Gly to N-dansyl-Tyr-Val-NH2 and glyoxylate was verified by RP-HPLC to quantify the exact concentrations of [dansyl-Tyr-Val-NH2] and [glyoxylate] (100% conversion, 20 μM N-dansyl-Tyr-Val-NH2 and glyoxylate). Aliquots of the PAM produced glyoxylate pertaining to variable concentrations (0.3, 0.7, 1.6, and 2.3, μM) of were utilized for analysis by the GLOX assay. Aliquots of glyoxylate were added to a solution of 50 mM sodium phosphate pH 6.0, 50 μM Amplex red, at HRP (1 U/ml) and a final concentration of 0.4 mg/ml GLOX. All samples were incubated for 1 hour at 37° C. for one hour.
Glyoxylate production was initiated by the addition of PAM (15 U/L) to a solution containing 40 mM MES/NaOH pH 6.0, 10 U/ml HRP, 1.0 mM catechol, 0.5 μM Cu(SO4), 20 μM dansyl-Tyr-Val-Gly, the reaction proceeded for one hour at 37° C. The PAM dependent conversion of 20 μM N-dansyl-Tyr-Val-Gly to N-dansyl-Tyr-Val-NH2 and glyoxylate was verified to be 100% by a RP-HPLC assay, to ensure a 20 μM PAM produced glyoxylate solution. […]

Glyoxal oxidase [1] = target: T2, Glyoxal oxidase (Phanerodontia chrysosporium, UniProt Q01772); conditions: cited from earlier work
T2 sequence (Q01772 23-559): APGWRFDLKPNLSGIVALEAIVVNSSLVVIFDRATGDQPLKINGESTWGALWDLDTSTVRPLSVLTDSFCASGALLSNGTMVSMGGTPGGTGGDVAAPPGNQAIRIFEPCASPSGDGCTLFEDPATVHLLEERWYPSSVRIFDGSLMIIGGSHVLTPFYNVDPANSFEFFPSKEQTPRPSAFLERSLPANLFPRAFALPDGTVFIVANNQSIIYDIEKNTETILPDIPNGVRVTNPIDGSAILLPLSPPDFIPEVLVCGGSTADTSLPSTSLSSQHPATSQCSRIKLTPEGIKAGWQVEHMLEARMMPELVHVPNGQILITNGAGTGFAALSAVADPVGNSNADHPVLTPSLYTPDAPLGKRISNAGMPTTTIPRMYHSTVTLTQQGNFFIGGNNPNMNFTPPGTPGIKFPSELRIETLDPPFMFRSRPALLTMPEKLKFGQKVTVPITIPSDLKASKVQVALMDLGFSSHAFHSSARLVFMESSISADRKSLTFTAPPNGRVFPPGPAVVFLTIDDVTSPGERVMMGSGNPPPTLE

Glyoxal oxidase [2] = target: T2, Glyoxal oxidase; assay: Effect of PAM reductant on glyoxal oxidase activity and glyoxylate assays; type: biochemical; set-up: Dr. James Whittaker, OGI School of Science and Engineering (gift); conditions: reductant for PAM catalysis
Excerpt: Application of the assays of the invention to the quantification of PAM-produced glyoxylate required two alterations of the PAM assay, as well as one change to the common glycolate oxidase assay which has previously been mentioned. Without these specific alterations the assays would be rendered non-stoichiometric and produce anomalous data. First, to address the changes to the PAM assay, a new method for enzyme protection due to hydroxyl radical formation produced during catalysis was necessary as the use of catalase has previously been the method of choice. Catalase catalyzes the disproportionate reaction of H2O2 to H2O and O2, and removal of hydrogen peroxide is detrimental to the assay methods. […] Second, a reducing agent is necessary for the PAM catalysis. Ascorbate is frequently used in the art for this purpose. […] As an alternative to the foregoing, ascorbate may be used in the PAM-catalyzed reaction, but later removed (e.g., by deactivating with ascorbate oxidase) prior to assaying for glyoxylate.

[3] = target: T3, peptidylglycine α-amidating monooxygenase (Rattus norvegicus, UniProt P14925); assay: PAM treatment of hippurate: benzamide by HPLC, glyoxylate by malate synthase/malate dehydrogenase/MTS/PMS system; type: biochemical; conditions: for Benzamide Produced / Glyoxylate Produced: PAM added to 2.5 mM hippurate
T3 sequence (P14925 36-976): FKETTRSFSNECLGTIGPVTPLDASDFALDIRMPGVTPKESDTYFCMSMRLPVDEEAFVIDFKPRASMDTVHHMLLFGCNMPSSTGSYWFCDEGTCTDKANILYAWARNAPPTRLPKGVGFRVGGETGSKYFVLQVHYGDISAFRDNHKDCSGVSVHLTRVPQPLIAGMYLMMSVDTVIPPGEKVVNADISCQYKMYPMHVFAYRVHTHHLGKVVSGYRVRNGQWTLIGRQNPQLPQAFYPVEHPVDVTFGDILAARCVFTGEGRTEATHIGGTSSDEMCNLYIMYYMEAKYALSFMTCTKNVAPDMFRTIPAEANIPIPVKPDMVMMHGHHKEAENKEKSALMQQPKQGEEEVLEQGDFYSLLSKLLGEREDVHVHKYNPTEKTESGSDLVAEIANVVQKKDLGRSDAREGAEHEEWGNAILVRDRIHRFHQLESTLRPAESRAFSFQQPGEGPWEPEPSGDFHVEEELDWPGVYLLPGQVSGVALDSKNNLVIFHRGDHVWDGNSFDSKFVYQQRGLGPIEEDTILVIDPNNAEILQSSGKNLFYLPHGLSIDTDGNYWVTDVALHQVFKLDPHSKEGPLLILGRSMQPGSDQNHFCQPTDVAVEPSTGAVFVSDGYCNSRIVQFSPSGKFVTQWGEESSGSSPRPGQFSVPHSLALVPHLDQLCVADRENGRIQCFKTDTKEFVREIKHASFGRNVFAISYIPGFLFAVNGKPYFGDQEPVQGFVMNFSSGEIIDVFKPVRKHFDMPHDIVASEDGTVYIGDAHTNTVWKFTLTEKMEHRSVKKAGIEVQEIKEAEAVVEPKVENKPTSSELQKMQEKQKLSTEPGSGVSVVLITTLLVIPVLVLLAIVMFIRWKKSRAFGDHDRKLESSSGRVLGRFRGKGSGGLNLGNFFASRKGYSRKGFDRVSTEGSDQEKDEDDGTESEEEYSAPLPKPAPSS
Protocol: Hippurate (N-benzoylglycine, C6H5-CO—NH—CH2-COO^−) is a PAM substrate that is oxidatively converted to benzamide and glyoxylate. […] At 10 min intervals over a period of 110 minutes, 45 μl aliquots may be removed and added to 10 μl of 6% (v/v) trifluoroacetic acid to terminate the reaction. Percent conversion of hippurate to benzamide may be determined at each time interval by reverse-phase HPLC.
Approximately 20 nanomoles of glyoxylate may be removed from the HPLC vials and added to a 0.9 ml solution that contain necessary components for the glyoxylate assay excluding the enzyme couple and MTS/PMS. Ascorbate may be eliminated from all samples, prior to glyoxylate determination, with 10 min incubation in the presence of 12 units of ascorbate oxidase at 37° C. Following ascorbate removal the addition of 100 μl enzyme couple and PMS/MTS may bring the assay to a final volume of 1 ml which contains 100 mM TEA-HC1 pH 7.8, 10 MM MgCl2, 400 μM acetyl-CoA, 500 μM NAD^+, 6 U/ml malate synthase, 6 U/ml malate dehydrogenase, and 12 units ascorbate oxidase. The glyoxylate concentration may be determined by measuring the absorbance increase at 490 nm after incubation at 37° C. for 1 hr. A control for this experiment was performed at each time point, and contained no hippurate.

N-dansyl-Tyr-Val-Gly
PAM dependent conversion to N-dansyl-Tyr-Val-NH2 and glyoxylate (PAM): 100%

O=CC(=O)O [glyoxylic acid]
Km (Glyoxal oxidase [1]): 2500 µM
kcat/KM ratio, activity compared to methylglyoxal (Glyoxal oxidase [1]): 12.4%

Oc1ccccc1O [catechol]
inhibition of the enzyme activity of glyoxal oxidase and of the spectrophotometric, fluorescent and luminescent assays (Glyoxal oxidase [2]): not an inhibitor

CC(=O)C=O [Methylglyoxal]
Km (Glyoxal oxidase [1]): 640 µM

O=C(O)CNC(=O)c1ccccc1 [hippurate, N-benzoylglycine]
[Glyoxylate]/[Benzamide] ([3]; Time 40): 1.2
Benzamide Produced ([3]; Time 40): 0.58 mM
Glyoxylate Produced ([3]; Time 40): 0.69 mM
[Glyoxylate]/[Benzamide] ([3]; Time 50): 0.96
Benzamide Produced ([3]; Time 50): 0.70 mM
Glyoxylate Produced ([3]; Time 50): 0.67 mM
[Glyoxylate]/[Benzamide] ([3]; Time 60): 0.89
Benzamide Produced ([3]; Time 60): 0.80 mM
Glyoxylate Produced ([3]; Time 60): 0.71 mM
[Glyoxylate]/[Benzamide] ([3]; Time 70): 0.83
Benzamide Produced ([3]; Time 70): 0.90 mM
Glyoxylate Produced ([3]; Time 70): 0.75 mM
[Glyoxylate]/[Benzamide] ([3]; Time 80): 0.79
Benzamide Produced ([3]; Time 80): 0.98 mM
Glyoxylate Produced ([3]; Time 80): 0.77 mM
[Glyoxylate]/[Benzamide] ([3]; Time 90): 1.2
Benzamide Produced ([3]; Time 90): 1.1 mM
Glyoxylate Produced ([3]; Time 90): 1.3 mM
[Glyoxylate]/[Benzamide] ([3]; Time 100): 1.1
Benzamide Produced ([3]; Time 100): 1.2 mM
Glyoxylate Produced ([3]; Time 100): 1.3 mM
[Glyoxylate]/[Benzamide] ([3]; Time 110): 1.0
Benzamide Produced ([3]; Time 110): 1.3 mM
Glyoxylate Produced ([3]; Time 110): 1.3 mM
